For the assay, the target named is T1, GFRα1-RET (Homo sapiens, UniProt P56159).
T1 construct: expressed in transfected cells; host or cells: MG87 murine fibroblasts, stably transfected
T1 sequence (P56159 25-429 limits assumed): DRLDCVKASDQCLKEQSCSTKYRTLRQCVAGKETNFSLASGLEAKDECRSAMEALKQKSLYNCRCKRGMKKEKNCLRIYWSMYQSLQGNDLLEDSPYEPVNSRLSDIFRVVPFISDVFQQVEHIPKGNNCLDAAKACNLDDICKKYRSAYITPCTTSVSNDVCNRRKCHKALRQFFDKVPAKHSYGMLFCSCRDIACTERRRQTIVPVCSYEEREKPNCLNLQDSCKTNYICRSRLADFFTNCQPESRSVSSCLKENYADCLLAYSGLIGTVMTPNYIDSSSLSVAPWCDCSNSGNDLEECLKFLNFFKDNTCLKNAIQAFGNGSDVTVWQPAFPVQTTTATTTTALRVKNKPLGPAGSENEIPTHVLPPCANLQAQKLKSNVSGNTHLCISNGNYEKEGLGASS
Briefly: Elk1 reporter-gene (luciferase) assay in cells expressing GFRα1-RET. As to conditions: MG87 murine fibroblasts stably transfected with PathDetect Elk-1, GFRα1 and RET, 6 concentrations, agonist/activator activity. The assay is classed as cell-based. As for the experimental part: For ECso determination, a dose-response test was performed using 6 concentrations of each tested compound. Dose-response curves were fitted using the sigmoidal dose-response (variable slope) analysis in GraphPad Prism program (Graph Pad Inc) and ECso of agonist/activator activity was calculated. Dose-response experiments were all performed in duplicate, two times independently.

Structures are written as SMILES. Where only a bound is given, the exact number is not on record here.

With `CN1CCc2cc(S(=O)(=O)N3CCC(c4ccccc4)CC3)cc(N3[C@@H]4CC[C@H]3CN(C(=O)c3cc(F)c(F)cc3Cl)C4)c21` [compound 120, (2-chloro-4,5-difluoro-phenyl)-[(1S,5R)-8-[1-methyl-5-[(4-phenyl-1-piperidyl)sulfonyl]indolin-7-yl]-3,8-diazabicyclo[3.2.1]octan-3-yl]methanone], the EC50 (as a rule, the concentration at which the effect is half-maximal) was less than 1 µM.
In the case of `COc1ccc(S(=O)(=O)N(C)CCCF)cc1N1CCN(C(=O)c2ccc(F)cc2Cl)CC1C` (racemic) [compound 038, N-(3-fluoropropyl)-4-methoxy-N-methyl-3-[rac-(2S)-4-(2-chloro-4-fluoro-benzoyl)-2-methyl-piperazin-1-yl]benzenesulfonamide] it was 1 to 10 µM.
In the case of `CC1(NS(=O)(=O)c2cc(Cl)c(O)c(N3[C@@H]4CC[C@H]3CN(C(=O)c3ccc(F)cc3Cl)C4)c2)COC1` [compound 108] it was 1 to 10 µM.
In the case of `O=C(c1ccc(F)cc1Cl)N1C[C@H]2CC[C@@H](C1)N2c1cc(S(=O)(=O)N2CCC(c3ccc(F)cc3)CC2)cc(C(F)(F)F)c1O` [compound 088, (2-chloro-4-fluoro-phenyl)-[(1S,5R)-8-[5-[[4-(4-fluorophenyl)-1-piperidyl]sulfonyl]-2-hydroxy-3-(trifluoromethyl)phenyl]-3,8-diazabicyclo[3.2.1]octan-3-yl]methanone] it was less than 1 µM; in that of `CCCN(C)S(=O)(=O)c1cccc(N2[C@@H]3CC[C@H]2CN(C(=O)c2ccc(F)cc2Cl)C3)c1` [compound 028, 3-[(1S,5R)-3-(2-chloro-4-fluoro-benzoyl)-3,8-diazabicyclo[3.2.1]octan-8-yl]-N-methyl-N-propyl-benzenesulfonamide], 1 to 10 µM.
In the case of `CCCN(C)S(=O)(=O)c1ccc(OC)c(N2CCN(C(=O)c3ccc(F)cc3Cl)CC2C)c1` (racemic) [compound 001, 4-methoxy-N-methyl-N-propyl-3-[rac-(2S)-4-(2-chloro-4-fluoro-benzoyl)-2-methyl-piperazin-1-yl]benzenesulfonamide], the EC50 was 1 to 10 µM.
`O=C(c1ccc(F)cc1Cl)N1C[C@H]2CC[C@@H](C1)N2c1cc(S(=O)(=O)N2CCC(c3ccccc3)CC2)ccc1OCCO` [compound 076]: the EC50 was less than 1 µM.
The molecule `O=C(c1ccc(F)cc1Cl)N1C[C@H]2CC[C@@H](C1)N2c1cc(S(=O)(=O)N2CCC(c3ccccc3)CC2)cc(F)c1O` [compound 083, (2-chloro-4-fluoro-phenyl)-[(1S,5R)-8-[3-fluoro-2-hydroxy-5-[(4-phenyl-1-piperidyl)sulfonyl]phenyl]-3,8-diazabicyclo[3.2.1]octan-3-yl]methanone] came in with an EC50 of less than 1 µM.
`CCCN(C)S(=O)(=O)c1ccc(O)c(N2[C@@H]3CC[C@H]2CN(C(=O)c2ccc(F)cc2Cl)C3)c1` [compound 036, 3-[(1S,5R)-3-(2-chloro-4-fluoro-benzoyl)-3,8-diazabicyclo[3.2.1]octan-8-yl]-4-hydroxy-N-methyl-N-propyl-benzenesulfonamide]: the EC50 fell in the range of 1 to 10 µM.
In the case of `CN(C)c1ccc(S(=O)(=O)N2CCC(c3ccccc3)CC2)cc1N1[C@@H]2CC[C@H]1CN(C(=O)c1cc(F)c(F)cc1Cl)C2` [compound 122, (2-chloro-4,5-difluoro-phenyl)-[(1S,5R)-8-[2-(dimethylamino)-5-[(4-phenyl-1-piperidyl)sulfonyl]phenyl]-3,8-diazabicyclo[3.2.1]octan-3-yl]methanone] it was less than 1 µM; in that of `COc1ccc(S(=O)(=O)N2CCC(CCc3ccccc3)CC2)cc1N1[C@@H]2CC[C@H]1CN(C(=O)c1cc(F)c(F)cc1Cl)C2` [compound 050, (2-chloro-4,5-difluoro-phenyl)-[(1S,5R)-8-[2-methoxy-5-[[4-(2-phenylethyl)-1-piperidyl]sulfonyl]phenyl]-3,8-diazabicyclo[3.2.1]octan-3-yl]methanone], less than 1 µM; in that of `O=C(c1ccc(F)cc1Cl)N1C[C@H]2CC[C@@H](C1)N2c1cc(S(=O)(=O)N2CCC(F)CC2)cc(Cl)c1O` [compound 097, (2-chloro-4-fluoro-phenyl)-[(1S,5R)-8-[3-chloro-5-[(4-fluoro-1-piperidyl)sulfonyl]-2-hydroxy-phenyl]-3,8-diazabicyclo[3.2.1]octan-3-yl]methanone], less than 1 µM.
With `O=C(c1ccc(F)cc1Cl)N1C[C@H]2CC[C@@H](C1)N2c1cc(S(=O)(=O)N2CCC(c3ccc(F)cc3)CC2)cc(Cl)c1O` [compound 099, (2-chloro-4-fluoro-phenyl)-[(1S,5R)-8-[3-chloro-5-[[4-(4-fluorophenyl)-1-piperidyl]sulfonyl]-2-hydroxy-phenyl]-3,8-diazabicyclo[3.2.1]octan-3-yl]methanone], the EC50 was less than 1 µM.
In the case of `CN1CCc2cc(S(=O)(=O)N3CCC(c4ccccc4)CC3)cc(N3[C@@H]4CC[C@H]3CN(C(=O)c3ccc(F)cc3Cl)C4)c21` [compound 119, (2-chloro-4-fluoro-phenyl)-[(1S,5R)-8-[1-methyl-5-[(4-phenyl-1-piperidyl)sulfonyl]indolin-7-yl]-3,8-diazabicyclo[3.2.1]octan-3-yl]methanone] it was less than 1 µM; in that of `CC(C)(C)NS(=O)(=O)c1cc2c(c(N3[C@@H]4CC[C@H]3CN(C(=O)c3ccc(F)cc3Cl)C4)c1)OCC2` [compound 057, N-tert-butyl-7-[(1S,5R)-3-(2-chloro-4-fluoro-benzoyl)-3,8-diazabicyclo[3.2.1]octan-8-yl]-2,3-dihydrobenzofuran-5-sulfonamide], less than 1 µM; in that of `COc1ccc(S(=O)(=O)N2CCC(Cc3ccccc3)CC2)cc1N1C2CCC1CN(C(=O)c1ccc(F)cc1Cl)C2` (racemic) [compound 025, (2-chloro-4-fluoro-phenyl)-[rac-(1S,5S)-8-[5-[(4-benzyl-1-piperidyl)sulfonyl]-2-methoxy-phenyl]-3,8-diazabicyclo[3.2.1]]octan-3-yl]methanone], 1 to 10 µM.
With `CC(C)(C)NS(=O)(=O)c1cc(Cl)c(Cl)c(N2[C@@H]3CC[C@H]2CN(C(=O)c2ccc(F)cc2Cl)C3)c1` [compound 075, N-tert-butyl-3,4-dichloro-5-[(1S,5R)-3-(2-chloro-4-fluoro-benzoyl)-3,8-diazabicyclo[3.2.1]octan-8-yl]benzenesulfonamide], the EC50 was less than 1 µM.
`O=C(c1cc(F)c(F)cc1Cl)N1C[C@H]2CC[C@@H](C1)N2c1cc(S(=O)(=O)N2CCC(c3ccccc3)CC2)cc2c1OCC2` [compound 061, (2-chloro-4,5-difluoro-phenyl)-[(1S,5R)-8-[5-[(4-phenyl-1-piperidyl)sulfonyl]-2,3-dihydrobenzofuran-7-yl]-3,8-diazabicyclo[3.2.1]octan-3-yl]methanone] returned an EC50 of less than 1 µM.
In the case of `CCCN(C)S(=O)(=O)c1ccc(OC)c(N2CCN(C(=O)c3ccc(F)cc3C(F)(F)F)CC2C(F)(F)F)c1` (racemic) [compound 016, 4-methoxy-N-methyl-N-propyl-3-[rac-(2S)-4-[4-fluoro-2-(trifluoromethyl)benzoyl]-2-(trifluoromethyl)piperazin-1-yl]benzenesulfonamide] it was 1 to 10 µM; in that of `COc1ccc(S(=O)(=O)N2CCC(c3cccc(C#N)c3)CC2)cc1N1[C@@H]2CC[C@H]1CN(C(=O)c1ccc(F)cc1Cl)C2` [compound 040, 3-[1-[3-[(1S,5R)-3-(2-chloro-4-fluoro-benzoyl)-3,8-diazabicyclo[3.2.1]octan-8-yl]-4-methoxy-phenyl]sulfonyl-4-piperidyl]benzonitrile], less than 1 µM; in that of `COc1ccc(S(=O)(=O)NC(C)(C)C)cc1N1[C@@H]2CC[C@H]1CN(C(=O)c1ccc(F)cc1Cl)C2` [compound 002], 1 to 10 µM.
`CC1(NS(=O)(=O)c2cc(Cl)c(O)c(N3[C@@H]4CC[C@H]3CN(C(=O)c3ccc(F)cc3Cl)C4)c2)CC1` [compound 101, 3-chloro-5-[(1S,5R)-3-(2-chloro-4-fluoro-benzoyl)-3,8-diazabicyclo[3.2.1]octan-8-yl]-4-hydroxy-N-(1-methylcyclopropyl) benzenesulfonamide]: the EC50 lay in the range of 1 to 10 µM.
Take `CCCN(C)S(=O)(=O)c1ccc(OC)c(N2CCN(C(=O)c3ccc(F)cc3C(F)(F)F)CC2CC)c1` (racemic) [compound 017, 4-methoxy-N-methyl-N-propyl-3-[rac-(2S)-2-ethyl-4-[4-fluoro-2-(trifluoromethyl)benzoyl]piperazin-1-yl]benzenesulfonamide]: the EC50 fell in the range of 10 to 50 µM.
In the case of `COc1ccc(S(=O)(=O)N2CCN(CC(C)c3ccc(F)cc3)CC2)cc1N1C2CCC1CN(C(=O)c1ccc(F)cc1Cl)C2` (racemic) [compound 045, (2-chloro-4-fluoro-phenyl)-[(1S,5R)-8-[5-[4-[(2RS)-2-(4-fluorophenyl)propyl]piperazin-1-yl]sulfonyl-2-methoxy-phenyl]-3,8-diazabicyclo[3.2.1]octan-3-yl]methanone] it was less than 1 µM.
The molecule `O=C(c1ccc(F)cc1Cl)N1C[C@H]2CC[C@@H](C1)N2c1cc(S(=O)(=O)N2CCC(CCc3ccccc3)CC2)ccc1OCCO` [compound 077, (2-chloro-4-fluoro-phenyl)-[(1S,5R)-8-[2-(2-hydroxyethoxy)-5-[[4-(2-phenylethyl)-1-piperidyl]sulfonyl]phenyl]-3,8-diazabicyclo[3.2.1]octan-3-yl]methanone] yielded an EC50 of less than 1 µM.
In the case of `CCCN(C)S(=O)(=O)c1ccc(C2CC2)c(N2[C@@H]3CC[C@H]2CN(C(=O)c2ccc(F)cc2Cl)C3)c1` [compound 079] it was less than 1 µM.
